Measurements from ChEMBL document CHEMBL1126278, “New neplanocin analogues. 1. Synthesis of 6'-modified neplanocin A derivatives as broad-spectrum antiviral agents” (J Med Chem, 1992).
≈ marks a conversion by molar mass, not a printed value.

Tests used:
MDCK [1] = assay: cells; settings: Canis lupus familiaris
ESM [2] = assay: Inhibitory effect on replication of DNA virus TK-HSV-1 (B2006) on ESM cell line.; assay type: functional, cell-based
PRK [3] = assay: Inhibitory effect on replication of DNA virus VV on PRK cell line.; assay type: functional, cell-based; settings: Oryctolagus cuniculus
ESM [4] = assay: Inhibitory effect on replication of DNA virus VV on ESM cell line.; assay type: functional, cell-based
HEL [5] = assay: Inhibitory effect on replication of DNA virus CMV (Davis) on HEL cell line.; assay type: functional, cell-based; settings: Homo sapiens
Vero [6] = assay: Inhibitory effect on replication of RNA virus RNA synthesis in Vero cell line.; assay type: functional, cell-based; settings: Chlorocebus sabaeus
ESM [7] = assay: Inhibitory effect on replication of DNA virus HSV-2 (G) in ESM cell line; assay type: functional, cell-based
MDCK [8] = assay: cells; settings: Canis lupus familiaris; remark: listed apart in the source
PRK [9] = assay: Inhibitory effect on replication of DNA virus Cell morphology on PRK cell line; assay type: functional, cell-based; settings: Oryctolagus cuniculus
PRK [10] = assay: Inhibitory effect on replication of RNA virus VSV in PRK cell line.; assay type: functional, cell-based; settings: Oryctolagus cuniculus
ESM [11] = assay: Inhibitory effect on replication of RNA virus cell morphology in ESM cell line.; assay type: functional, cell-based
Vero [12] = assay: Inhibitory effect on replication of RNA virus JV in Vero cell line.; assay type: functional, cell-based; settings: Chlorocebus sabaeus
PRK [13] = assay: Inhibitory effect on replication of RNA virus cell morphology in PRK cell line.; assay type: functional, cell-based; settings: Oryctolagus cuniculus
Vero [14] = assay: Inhibitory effect on replication of RNA virus SV in Vero cell line.; assay type: functional, cell-based; settings: Chlorocebus sabaeus
ESM [15] = assay: Inhibitory effect on replication of DNA virus HSV-1 (KOS) in ESM cell line; assay type: functional, cell-based
Vero [16] = assay: Inhibitory effect on replication of RNA virus TV in Vero cell line.; assay type: functional, cell-based; settings: Chlorocebus sabaeus
MT4 [17] = assay: Inhibitory effect on replication of RNA virus HIV-1 in MT-4 cell line.; assay type: functional, cell-based; settings: Homo sapiens
ESM [18] = assay: Inhibitory effect on replication of DNA virus TK-HSV-1 (VMW 1837) on ESM cell line.; assay type: functional, cell-based
Vero [19] = assay: Inhibitory effect on replication of RNA virus PV-3 in Vero cell line.; assay type: functional, cell-based; settings: Chlorocebus sabaeus
HeLa [20] = assay: cells; settings: Homo sapiens
Vero [21] = assay: Inhibitory effect on replication of RNA virus measles on Vero cell line.; assay type: functional, cell-based; settings: Chlorocebus sabaeus
Vero [22] = assay: Inhibitory effect on replication of RNA virus cell morphology in Vero cell line.; assay type: functional, cell-based; settings: Chlorocebus sabaeus
HEL [23] = assay: Inhibitory effect on replication of DNA virus CMV (AD-169) on HEL cell line.; assay type: functional, cell-based; settings: Homo sapiens
HeLa [24] = assay: Inhibitory effect on replication of RNA virus cell morphology in HeLa cell line.; assay type: functional, cell-based; settings: Homo sapiens
HEL [25] = assay: Inhibitory effect on replication of DNA virus Cell growth on HEL cell line.; assay type: functional, cell-based; settings: Homo sapiens
Vero [26] = assay: Inhibitory effect on replication of RNA virus coxsB-4 in Vero cell line; assay type: functional, cell-based; settings: Chlorocebus sabaeus
Vero [27] = assay: Inhibitory effect on replication of RNA virus SFV in Vero cell line; assay type: functional, cell-based; settings: Chlorocebus sabaeus
HeLa [28] = assay: Inhibitory effect on replication of RNA virus coxsB-4 in HeLa cell line.; assay type: functional, cell-based; settings: Homo sapiens
[29] = Inhibitory effect on replication of DNA virus HSV-2 (G) in PRK cell line.; assay type: functional, cell-based; settings: Oryctolagus cuniculus
Vero [30] = assay: Inhibitory effect on replication of RNA virus protein synthesis in Vero cell line.; assay type: functional, cell-based; settings: Chlorocebus sabaeus
Vero [31] = assay: Inhibitory effect on replication of RNA virus reo-1 in Vero cell line.; assay type: functional, cell-based; settings: Chlorocebus sabaeus
MT4 [32] = assay: Inhibitory effect on replication of RNA virus cell growth in MT-4 cell line.; assay type: functional, cell-based; settings: Homo sapiens
[33] = Inhibitory effect on replication of DNA virus HSV-1 (KOS) in PRK cell line.; assay type: functional, cell-based; settings: Oryctolagus cuniculus
HEL [34] = assay: Inhibitory effect on replication of DNA virus VZV (Oka) on HEL cell line.; assay type: functional, cell-based; settings: Homo sapiens
HEL [35] = assay: Inhibitory effect on replication of DNA virus TK-VZV (07-1) on HEL cell line.; assay type: functional, cell-based; settings: Homo sapiens
HeLa [36] = assay: Inhibitory effect on replication of RNA virus RSV in HeLa cell line; assay type: functional, cell-based; settings: Homo sapiens
ESM [37] = assay: Inhibitory effect on replication of DNA virus Cell morphology on ESM cell line; assay type: functional, cell-based
MT4 [38] = assay: Inhibitory effect on replication of RNA virus HIV-2 in MT-4 cell line.; assay type: functional, cell-based; settings: Homo sapiens
HEL [39] = assay: Inhibitory effect on replication of DNA virus TK-VZV (YSR) on HEL cell line.; assay type: functional, cell-based; settings: Homo sapiens
MDCK [40] = assay: Inhibitory effect on replication of RNA virus cell morphology in MDCK cell line.; assay type: functional, cell-based; settings: Canis lupus familiaris
MT4 [41] = assay: Inhibitory effect on replication of DNA virus RNA virus HIV-1 in MT-4 cell line.; assay type: functional, cell-based; settings: Homo sapiens
MT4 [42] = assay: Inhibitory effect on replication of DNA virus RNA virus HIV-2 in MT-4 cell line.; assay type: functional, cell-based; settings: Homo sapiens
HeLa [43] = assay: Inhibitory effect on replication of RNA virus VSV in HeLa cell line.; assay type: functional, cell-based; settings: Homo sapiens

SMILES	IC50 (MDCK [1]) [µg/mL]	IC50 (PRK [3]) [µg/mL]	IC50 (HEL [5]) [µg/mL]	IC50 (Vero [6]) [µg/mL]	IC50 (MDCK [8]) [µg/mL]	IC50 (PRK [9]) [µg/mL]	IC50 (PRK [10]) [µg/mL]	IC50 (Vero [12]) [µg/mL]	IC50 (PRK [13]) [µg/mL]	IC50 (Vero [14]) [µg/mL]	IC50 (Vero [16]) [µg/mL]	IC50 (Vero [19]) [µg/mL]	IC50 (HeLa [20]) [µg/mL]	IC50 (Vero [21]) [µg/mL]	IC50 (Vero [22]) [µg/mL]	IC50 (HEL [23]) [µg/mL]	IC50 (HeLa [24]) [µg/mL]	IC50 (Vero [26]) [µg/mL]	IC50 (Vero [27]) [µg/mL]	IC50 (HeLa [28]) [µg/mL]	also measured
C[C@H](O)C1=C[C@@H](n2cnc3c(N)ncnc32)[C@H](O)[C@@H]1O	> 100	70 (≈ 252 µM)	9 (≈ 32.5 µM)	36 (≈ 130 µM)	> 100	> 400	70 (≈ 252 µM)	45 (≈ 162 µM)	> 400	150 (≈ 541 µM)	55 (≈ 198 µM)	100 (≈ 361 µM)	> 400	> 100	> 400	15 (≈ 54.1 µM)	> 400	> 200	> 400	> 400	IC50 (ESM [2]): > 400 µg/mL; IC50 (ESM [4]): 40 µg/mL (≈ 144 µM); IC50 (ESM [7]): > 400 µg/mL; IC50 (ESM [11]): > 400 µg/mL; IC50 (ESM [15]): > 400 µg/mL; IC50 (MT4 [17]): > 100 µg/mL; IC50 (ESM [18]): > 400 µg/mL; IC50 (HEL [25]): 132 µg/mL (≈ 476 µM); IC50 [29]: > 200 µg/mL; IC50 (Vero [30]): > 190 µg/mL; IC50 (Vero [31]): 40 µg/mL (≈ 144 µM); IC50 (MT4 [32]): > 100 µg/mL; IC50 [33]: > 400 µg/mL; IC50 (HEL [34]): 100 µg/mL (≈ 361 µM); IC50 (HEL [35]): 76 µg/mL (≈ 274 µM); IC50 (HeLa [36]): > 100 µg/mL; IC50 (ESM [37]): > 400 µg/mL; IC50 (MT4 [38]): > 100 µg/mL; IC50 (HEL [39]): 39 µg/mL (≈ 141 µM); IC50 (MDCK [40]): > 100 µg/mL
C=CC1=C[C@@H](n2cnc3c(N)ncnc32)[C@H](O)[C@@H]1O	> 100	20 (≈ 77.1 µM)	17 (≈ 65.6 µM)	14 (≈ 54 µM)	> 100	> 400	20 (≈ 77.1 µM)	8 (≈ 30.9 µM)	> 400	> 200	10 (≈ 38.6 µM)	40 (≈ 154 µM)	> 400	40 (≈ 154 µM)	400 (≈ 1540 µM)	18 (≈ 69.4 µM)	> 400	> 200	> 200	> 400	IC50 (MT4 [41]): > 8 µg/mL; IC50 [29]: > 200 µg/mL; IC50 (MT4 [42]): > 8 µg/mL; IC50 (Vero [30]): 47 µg/mL (≈ 181 µM); IC50 (Vero [31]): 70 µg/mL (≈ 270 µM); IC50 (MT4 [32]): 6 µg/mL (≈ 23.1 µM); IC50 [33]: > 200 µg/mL; IC50 (HeLa [36]): 100 µg/mL (≈ 386 µM); IC50 (HeLa [43]): 300 µg/mL (≈ 1160 µM); IC50 (MDCK [40]): > 100 µg/mL
